Results on 26 compounds are retold here after patent publication US20250042879A1, “HETEROCYCLIC SUBSTITUTED 1,3,4-THIADIAZOLE AND PYRIDAZINE COMPOUNDS AND METHODS OF USING THE SAME” (Rgenta Therapeutics, Inc., priority 2021, published 2025).

The term EC50 denotes the concentration that produces a half-maximal response. Read a high EC50 as a need for much substance.

SMILES strings stand for the structures. Structures can show the parent of a compound that is named as a salt.

The assay deals with HTT. Put plainly: Mini-gene reporter assay-HTT (firefly luciferase, exon inclusion). In kind it is cell-based. The following applies: Homo sapiens; HTT mini-gene firefly luciferase reporter transiently transfected into HEK293 cells. An excerpt:
Mini-gene reporter constructs for each target site were constructed by first PCR amplifying the region-of-interest including the sequence of the alternatively skipped, sequences of the immediate upstream and downstream introns, and sequences of the immediate upstream and downstream exons. Then the 3′end of the amplified sequence was ligated to a firefly luciferase reporter gene and cloned into the pcDNA3.1 vector backbone. The final reporter construct was transiently transfected into HEK293 cells using Lipofectamine 3000 transfection reagents. Compounds that can induce the inclusion of the skipped exon in the reporter construct would increase the reporter firefly luciferase activity.
Test compounds were diluted in duplicates and dispensed into an assay plate. Transient mini-gene reporter cell line stock was resuspended and dispensed into the assay plate. Assay plates were then centrifuged and incubated. A luciferase reagent (e.g. ONE-Glo firefly luciferase reagent from Promega®) was added to the assay plate and the luminescence (RLU) signals recorded. EC50 values were determined by curve fitting in Levenberg-Marquardt algorithm.
A general note: Reporter assays use an easily measured gene product as a stand-in for the process of interest.
For `Cc1cn2cc(-c3ccc(-c4ccc(C5CN(C)C5)nn4)c(O)c3)cc(C)c2n1` [Compound 35, 5-{2,8-dimethylimidazo[1,2-a]pyridin-6-yl}-2-[6-(1-methylazetidin-3-yl)pyridazin-3-yl]phenol], the concentration for a half-maximal effect (EC50) lay in the range of 500 to 1000 nM.
For `Cc1cn2nc(-c3ccc(-c4ccc(C5CN(C)C5)nn4)c(O)c3)ccc2n1` [Compound 37, 2-[6-(1-methylazetidin-3-yl)pyridazin-3-yl]-5-{2-methylimidazo[1,2-b]pyridazin-6-yl}phenol] the value was 50 to 500 nM; for `Cc1cn2cc(-c3ccc(-c4ccc(C5CN(C)C5)nn4)c(O)c3)ncc2n1` [Compound 39, 2-[6-(1-methylazetidin-3-yl)pyridazin-3-yl]-5-{2-methylimidazo[1,2-a]pyrazin-6-yl}phenol], 50 to 500 nM; for `Cc1cc2cc(-c3ccc(-c4ccc(C5CN(C)C5)nn4)c(O)c3)cc(C)n2n1` [Compound 40, 5-{2,7-dimethylpyrazolo[1,5-a]pyridin-5-yl}-2-[6-(1-methylazetidin-3-yl)pyridazin-3-yl]phenol], 500 to 1000 nM.
The figure for `CCN1CC(c2ccc(-c3ccc(-c4cc(C)n5nc(C)cc5c4)cc3O)nn2)C1` [Compound 41, 5-{2,7-dimethylpyrazolo[1,5-a]pyridin-5-yl}-2-[6-(1-ethylazetidin-3-yl)pyridazin-3-yl]phenol] is at least 1000 nM; for `CCN1CC(c2ccc(-c3ccc(-c4cc(C)c5nc(C)cn5n4)cc3O)nn2)C1` [Compound 42, 5-{2,8-dimethylimidazo[1,2-b]pyridazin-6-yl}-2-[6-(1-ethylazetidin-3-yl)pyridazin-3-yl]phenol] it is at least 1000 nM.
For `CCN1CC(c2ccc(-c3ccc(-c4cn5cc(C)nc5cn4)cc3O)nn2)C1` [Compound 43, 2-[6-(1-ethylazetidin-3-yl)pyridazin-3-yl]-5-{2-methylimidazo[1,2-a]pyrazin-6-yl}phenol] the value was 500 to 1000 nM; for `Cn1cc2cc(-c3ccc(-c4ccc(C5CNC5)nn4)c(O)c3)ncc2n1` [Compound 44, 2-(6-(azetidin-3-yl)pyridazin-3-yl)-5-(2-methyl-2H-pyrazolo[3,4-c]pyridin-5-yl)phenol hydrochloride], 500 to 1000 nM.
On to `Cn1cc2cc(-c3ccc(-c4ccc(C5CN(C6CCOC6)C5)nn4)c(O)c3)ccc2n1` (centres unmarked) [Compound 45, 5-(2-methyl-2H-indazol-5-yl)-2-{6-[1-(oxolan-3-yl)azetidin-3-yl]pyridazin-3-yl}phenol], for which the EC50 fell in the range of 500 to 1000 nM.
The figure for `CCN1CC(c2ccc(-c3ccc(-c4cc5cn(C)nc5cn4)cc3O)nn2)C1` [Compound 46, 2-[6-(1-ethylazetidin-3-yl)pyridazin-3-yl]-5-{2-methyl-2H-pyrazolo[3,4-c]pyridin-5-yl}phenol] is 500 to 1000 nM.
The figure for `CCN1CC(c2ccc(-c3ccc(-c4ccc5nccn5n4)cc3O)nn2)C1` [Compound 47, 2-[6-(1-ethylazetidin-3-yl)pyridazin-3-yl]-5-{imidazo[1,2-b]pyridazin-6-yl}phenol] is 500 to 1000 nM.
For `CCN1CC(c2ccc(-c3ccc(-c4cc(OC)c5nn(C)cc5c4)cc3O)nn2)C1` [Compound 48, 2-[6-(1-ethylazetidin-3-yl)pyridazin-3-yl]-5-(7-methoxy-2-methyl-2H-indazol-5-yl)phenol], the EC50 fell in the range of 50 to 500 nM.
As for `COc1cc(-c2ccc(-c3ccc(C4CN(C5CCOCC5)C4)nn3)c(O)c2)cc2cn(C)nc12` [Compound 49, 5-(7-methoxy-2-methyl-2H-indazol-5-yl)-2-{6-[1-(oxan-4-yl)azetidin-3-yl]pyridazin-3-yl}phenol], the concentration for a half-maximal effect (EC50) is 500 to 1000 nM.
As to `CCN1CC(c2ccc(-c3ccc(-c4ccc5nn(C)cc5n4)cc3O)nn2)C1` [Compound 50, 2-[6-(1-ethylazetidin-3-yl)pyridazin-3-yl]-5-{2-methyl-2H-pyrazolo[4,3-b]pyridin-5-yl}phenol], the EC50 was in the range of 50 to 500 nM.
For `Cn1cc2nc(-c3ccc(-c4ccc(C5CN(C6CCOCC6)C5)nn4)c(O)c3)ccc2n1` [Compound 51, 5-{2-methyl-2H-pyrazolo[4,3-b]pyridin-5-yl}-2-{6-[1-(oxan-4-yl)azetidin-3-yl]pyridazin-3-yl}phenol] the value was 500 to 1000 nM.
`CCN1CC(c2ccc(-c3ccc(-c4cc5cn(C)nc5c(OC)n4)cc3O)nn2)C1` [Compound 52, 2-[6-(1-ethylazetidin-3-yl)pyridazin-3-yl]-5-{7-methoxy-2-methyl-2H-pyrazolo[3,4-c]pyridin-5-yl}phenol] had an EC50 of 50 to 500 nM.
`CCN1CC(c2ccc(-c3ccc(-c4cc5cn(C)nc5c(O)n4)cc3O)nn2)C1` [Compound 53, 5-{4-[6-(1-ethylazetidin-3-yl)pyridazin-3-yl]-3-hydroxyphenyl}-2-methyl-2H-pyrazolo[3,4-c]pyridin-7-ol] returned an EC50 of 500 to 1000 nM.
The figure for `CCOc1cc(-c2ccc(-c3ccc(C4CN(C5CCOCC5)C4)nn3)c(O)c2)cc2cn(C)nc12` [Compound 54, 5-(7-ethoxy-2-methyl-2H-indazol-5-yl)-2-{6-[1-(oxan-4-yl)azetidin-3-yl]pyridazin-3-yl}phenol] is at least 1000 nM; for `CCOc1cc(-c2ccc(-c3ccc(C4CN(C)C4)nn3)c(O)c2)cc2cn(C)nc12` [Compound 55, 5-(7-ethoxy-2-methyl-2H-indazol-5-yl)-2-[6-(1-methylazetidin-3-yl)pyridazin-3-yl]phenol] it is at least 1000 nM.
Compound `CCOc1cc(-c2ccc(-c3ccc(C4CN(CC)C4)nn3)c(O)c2)cc2cn(C)nc12` [Compound 56, 5-(7-ethoxy-2-methyl-2H-indazol-5-yl)-2-[6-(1-ethylazetidin-3-yl)pyridazin-3-yl]phenol] gave an EC50 of 500 to 1000 nM.
`COc1nc(-c2ccc(-c3ccc(C4CN(C(C)C)C4)nn3)c(O)c2)cc2cn(C)nc12` [Compound 57, 5-{7-methoxy-2-methyl-2H-pyrazolo[3,4-c]pyridin-5-yl}-2-{6-[1-(propan-2-yl)azetidin-3-yl]pyridazin-3-yl}phenol] came in with a concentration giving a half-maximal response (EC50) of 50 to 500 nM.
For `COc1nc(-c2ccc(-c3ccc(C4CN(C5CCOCC5)C4)nn3)c(O)c2)cc2cn(C)nc12` [Compound 58, 5-{7-methoxy-2-methyl-2H-pyrazolo[3,4-c]pyridin-5-yl}-2-{6-[1-(oxan-4-yl)azetidin-3-yl]pyridazin-3-yl}phenol] the value was 50 to 500 nM; for `CCc1cc(-c2ccc(-c3ccc(C4CN(C5CCOCC5)C4)nn3)c(O)c2)nc2cn(C)nc12` [Compound 59, 5-{7-ethyl-2-methyl-2H-pyrazolo[4,3-b]pyridin-5-yl}-2-{6-[1-(oxan-4-yl)azetidin-3-yl]pyridazin-3-yl}phenol], at least 1000 nM; for `CCc1cc(-c2ccc(-c3ccc(C4CN(CC)C4)nn3)c(O)c2)nc2cn(C)nc12` [Compound 60, 5-{7-ethyl-2-methyl-2H-pyrazolo[4,3-b]pyridin-5-yl}-2-[6-(1-ethylazetidin-3-yl)pyridazin-3-yl]phenol], at least 1000 nM.
The compound `Cc1cc(-c2ccc(-c3ccc(C4CN(C5CCOCC5)C4)nn3)c(O)c2)nc2cn(C)nc12` [Compound 61, 5-{2,7-dimethyl-2H-pyrazolo[4,3-b]pyridin-5-yl}-2-{6-[1-(oxan-4-yl)azetidin-3-yl]pyridazin-3-yl}phenol] yielded a 50% effective concentration (EC50) of at least 1000 nM.
The compound `CCN1CC(c2ccc(-c3ccc(-c4cc(C)c5nn(C)cc5n4)cc3O)nn2)C1` [Compound 62, 5-{2,7-dimethyl-2H-pyrazolo[4,3-b]pyridin-5-yl}-2-[6-(1-ethylazetidin-3-yl)pyridazin-3-yl]phenol] had an EC50 of 500 to 1000 nM.
